The term inhibition denotes the change of the read-out against control, counted positive when it falls. As usually defined, the IC50 is the concentration that inhibits the measured activity by half.

Assay [1] has as its target Prostaglandin G/H synthase 2 (Homo sapiens) (UniProt P35354). The assay can be described thus: Inhibition of recombinant human COX2 assessed as reduction in PGF2alpha at 10 uM incubated for 2 mins using arachidonic acid as substrate by ELISA relative to control. For orientation: In an ELISA, binding on a coated surface is turned into a signal by an enzyme label.
Assay [2] has as its target Prostaglandin G/H synthase 1 (Ovis aries) (UniProt P05979). In words: Inhibition of ovine COX1 assessed as reduction in PGF2alpha at 10 uM incubated for 2 mins using arachidonic acid as substrate by ELISA relative to control.
In assay [3] the test system is Rattus norvegicus. The assay can be described thus: Antiinflammatory activity in Wistar albino rat assessed as reduction in carrageenan-induced paw edema at 25 mg/kg, ip measured after 1 hr by plethysmometric method (reference value: 1.43 +/- 0.19 ml). It counts as functional. On the technique in general: The carrageenan paw model is a standard test of acute inflammation.

The test system of assay [4] is Rattus norvegicus. The assay can be described thus: Analgesic activity in Wistar albino rat assessed as reaction time at 25 mg/kg, ip measured after 30 mins for 15 secs by hot plate method (reference value: 4.21 +/- 0.41 sec). It counts as functional.
Assay [5] in a line: Antioxidant activity assessed as DPPH radical scavenging activity at 40 uM/ml incubated for 20 mins by spectrophotometric method relative to control. It counts as functional.
Assay [6] is described as follows: Antioxidant activity assessed as DPPH radical scavenging activity at 10 uM/ml incubated for 20 mins by spectrophotometric method relative to control. It counts as functional. On the technique in general: DPPH is a stable violet radical that fades when it is reduced.
The test system of assay [7] is Rattus norvegicus. In words: Analgesic activity in Wistar albino rat assessed as reaction time at 12.5 mg/kg, ip measured after 120 mins for 15 secs by hot plate method (reference value: 4.32 +/- 0.52 sec). It counts as functional.
Assay [8] in a line: Antioxidant activity assessed as DPPH radical scavenging activity at 100 uM/ml incubated for 20 mins by spectrophotometric method relative to control. It counts as functional.
Assay [9] in a line: Selectivity index, ratio of IC50 for inhibition of ovine COX1 to IC50 for inhibition of recombinant human COX2.
Assay [10] has as its system Rattus norvegicus. In words: Antiinflammatory activity in Wistar albino rat assessed as reduction in carrageenan-induced paw edema at 25 mg/kg, ip measured after 3 hrs by plethysmometric method (reference value: 1.75 +/- 0.33 ml). It counts as functional.
The nature of assay [11]: Antioxidant activity assessed as DPPH radical scavenging activity at 80 uM/ml incubated for 20 mins by spectrophotometric method relative to control. It counts as functional.
The test system of assay [12] is Rattus norvegicus. The assay can be described thus: Analgesic activity in Wistar albino rat assessed as reaction time at 25 mg/kg, ip measured after 180 mins for 15 secs by hot plate method (reference value: 3.87 +/- 0.38 sec). It counts as functional.
Assay [13] concerns Rattus norvegicus. The assay can be described thus: Analgesic activity in Wistar albino rat assessed as reaction time at 12.5 mg/kg, ip measured after 180 mins for 15 secs by hot plate method (reference value: 3.87 +/- 0.38 sec). It counts as functional.
Assay [14] relates to Rattus norvegicus. The assay can be described thus: Antiinflammatory activity in Wistar albino rat assessed as reduction in carrageenan-induced paw volume at 12.5 mg/kg, ip measured after 2 hrs by plethysmometric method (reference value: 1.58 +/- 0.21 ml). It counts as functional.
Assay [15] has as its system Rattus norvegicus. The assay can be described thus: Analgesic activity in Wistar albino rat assessed as reaction time at 12.5 mg/kg, ip measured after 30 mins for 15 secs by hot plate method (reference value: 4.21 +/- 0.41 sec). It counts as functional.
Assay [16] relates to Rattus norvegicus. The assay can be described thus: Antiinflammatory activity in Wistar albino rat assessed as reduction in carrageenan-induced paw volume at 12.5 mg/kg, ip measured after 3 hrs by plethysmometric method (reference value: 1.75 +/- 0.33 ml). It counts as functional.
A short description of assay [17]: Antioxidant activity assessed as DPPH radical scavenging activity incubated for 20 mins by spectrophotometric method. It counts as functional.
Assay [18] deals with Rattus norvegicus. In words: Analgesic activity in Wistar albino rat assessed as reaction time at 25 mg/kg, ip measured after 60 mins for 15 secs by hot plate method (reference value: 4.67 +/- 0.52 sec). It counts as functional.
The test system of assay [19] is Rattus norvegicus. In words: Analgesic activity in Wistar albino rat assessed as reaction time at 25 mg/kg, ip measured after 120 mins for 15 secs by hot plate method (reference value: 4.32 +/- 0.52 sec). It counts as functional.
In assay [20] the test system is Rattus norvegicus. In words: Antiinflammatory activity in Wistar albino rat assessed as reduction in carrageenan-induced paw volume at 12.5 mg/kg, ip measured after 1 hr by plethysmometric method (reference value: 1.43 +/- 0.19 ml). It counts as functional.
The nature of assay [21]: Antioxidant activity assessed as DPPH radical scavenging activity at 60 uM/ml incubated for 20 mins by spectrophotometric method relative to control. It counts as functional.
The test system of assay [22] is Rattus norvegicus. The assay can be described thus: Antiinflammatory activity in Wistar albino rat assessed as reduction in carrageenan-induced paw edema at 25 mg/kg, ip measured after 2 hrs by plethysmometric method (reference value: 1.58 +/- 0.21 ml). It counts as functional.
For assay [23], the system named is Rattus norvegicus. The assay can be described thus: Analgesic activity in Wistar albino rat assessed as reaction time at 12.5 mg/kg, ip measured after 60 mins for 15 secs by hot plate method (reference value: 4.67 +/- 0.52 sec). It counts as functional.
Assay [24] is described as follows: Antioxidant activity assessed as DPPH radical scavenging activity at 20 uM/ml incubated for 20 mins by spectrophotometric method relative to control. It counts as functional.

Take `CC1(C)CC(=O)C=C(Nc2ccc(Cl)cc2)C1`: the inhibition in assay [1] came to 42.6%; in assay [2], 16.4%.

Regarding `CSc1ccc(NC2=CC(=O)CCC2)cc1`, the inhibition in assay [1] is 27.8%; in assay [2], 12.8%.

On to `O=C1C=C(NCc2ccco2)CCC1`, for which the inhibition in assay [1] is 48.4%; in assay [2], 27.2%.

In the case of `N#Cc1ccc(NC2=CC(=O)CCC2)cc1`, the inhibition in [1] came out at 47.1%; in assay [2], 46.5%.

On to `O=C1C=C(Nc2ccc(Cl)cc2)CCC1`, for which the inhibition came to 88.6% in assay [1] and 12.9% in [2]. In addition, the Activity with Rattus norvegicus [3] turned out to be 1.29 mL; in assay [5] it was 33.7%; in assay [6], 12.7%; in [8] it was 78.2%; in the assay on Rattus norvegicus [10], 1.19 mL; in assay [11], 61.3%. In addition, the Activity in the assay on Rattus norvegicus [14] was 1.22 mL; in the assay on Rattus norvegicus [16] it was 1.23 mL; in the assay with Rattus norvegicus [20], 1.23 mL; in assay [21] it was 46.7%; in the assay with Rattus norvegicus [22], 1.24 mL; in assay [24], 24%. Moreover, the Time in the assay with Rattus norvegicus [4] was 5.48 s; with Rattus norvegicus [7], 7.16 s; in the assay with Rattus norvegicus [12], 8.2 s; in the assay on Rattus norvegicus [13] it was 7.24 s; with Rattus norvegicus [15] it was 5.34 s; in the assay with Rattus norvegicus [18] it was 7.72 s. Further, the Time in the assay with Rattus norvegicus [19] was determined as 8.83 s; in the assay with Rattus norvegicus [23], 7.09 s. Further, the Ratio IC50 in assay [9] stood at 74.1. In addition, in assay [17], the IC50 amounted to 71.2 µM.

Take `O=C1C=C(Nc2ccc(F)cc2)CC1`: the inhibition in [1] stood at 22.2%; in assay [2] it was 43.5%.

As to `O=C1C=C(NCc2ccco2)CC1`, the inhibition in [1] was found to be 41.4%; in assay [2], 30.5%.

As for `O=C1C=C(N2CCCC2)CCC1`, the inhibition in assay [1] was determined as 45.6%; in [2], 12.5%.

As for `COc1ccc(NC2=CC(=O)CCC2)cc1`, the inhibition in assay [1] was found to be 36.6%; in assay [2], 10.7%.

As to `O=C1C=C(Nc2ccccc2)CCC1`, the inhibition was 41.9% in assay [1] and 19.7% in assay [2].

For the compound `O=C1C=C(Nc2nc3ccccc3s2)CCC1`, the inhibition came out at 34% in assay [1] and 5.14% in [2].

Turning to `Cc1ccc(NC2=CC(=O)CCC2)cc1`, the inhibition in [1] came to 34.2%; in [2], 11.2%.

Turning to `O=C1C=C(Nc2cc(Cl)ccc2F)CCC1`, the inhibition was 47.4% in assay [1] and 32% in [2].

With `O=C1C=C(Nc2ccc(Cl)cc2)CC1`, the inhibition in assay [1] is 33.5%; in assay [2], 23.7%.

Regarding `O=C1O[C@H]([C@@H](O)CO)C(O)=C1O` [ASCORBIC ACID], the Activity was found to be 74.7% in assay [5]; 27.1% in assay [6]; 100% in assay [11]; 91.1% in [21]; 50.8% in [24]. Moreover, in assay [17], the IC50 was below 20 µM.

With `CC(C)(C)OC(=O)N(C1=CC(=O)CCC1)c1ccc(Cl)cc1`, the figures for the inhibition in assay [1] and in assay [2] were 73.5% and 30.5%, respectively. The Activity turned out to be 1.3 mL in the assay with Rattus norvegicus [3]; 49.6% in assay [5]; 23.1% in assay [6]; 89.1% in assay [8]; 1.19 mL in the assay with Rattus norvegicus [10]; 77.2% in assay [11]. For the same compound, the Activity with Rattus norvegicus [14] stood at 1.28 mL; with Rattus norvegicus [16], 1.18 mL; in the assay with Rattus norvegicus [20], 1.24 mL; in assay [21], 63%; in the assay with Rattus norvegicus [22], 1.24 mL; in [24], 36.5%. The Time in the assay on Rattus norvegicus [4] is recorded as 6.53 s; in the assay on Rattus norvegicus [7], 7.99 s; in the assay on Rattus norvegicus [12], 7.85 s; in the assay with Rattus norvegicus [13], 7.95 s; in the assay with Rattus norvegicus [15], 5.59 s; in the assay on Rattus norvegicus [18], 6.87 s. Further, the figures for the Time in the assay on Rattus norvegicus [19] and in the assay on Rattus norvegicus [23] were 9.98 s and 6.29 s, respectively. Moreover, the Ratio IC50 in [9] came to 19.4. Moreover, the 50% inhibitory concentration (IC50) in assay [17] amounted to 42.6 µM.

Consider `O=C1C=C(NCc2ccccc2)CCC1`, for which the inhibition in assay [1] is 40.5%; in assay [2], 24.2%.

For the compound `CC1(C)CC(=O)C=C(NCc2ccco2)C1`, the inhibition in assay [1] came out at 43.9%; in [2], 28.6%.

With `O=C1C=C(Nc2ccc([N+](=O)[O-])cc2)CCC1`, the inhibition in [1] was 24.2%; in assay [2], 31%.

For `CC1(C)CC(=O)C=C(Nc2ccc(F)cc2)C1`, the inhibition in assay [1] was 44.5%; in assay [2], 34%.

For `O=C1C=C(NN2CCCCC2)CCC1`, the inhibition in assay [1] is 43.2%; in assay [2], 11.3%.

On to `O=C1C=C(Nc2ccc(F)cc2)CCC1`, for which the figures for the inhibition in assay [1] and in assay [2] were 55.6% and 14.3%, respectively.

Consider `CC(=O)c1ccc(NC2=CC(=O)CCC2)cc1`, for which the inhibition in [1] worked out at 41.9%; in [2], 65.5%.
